From US12227771B2, “Expression systems and methods of use thereof” (Janssen Pharmaceutica NV, priority 2019, dated 2025)
Values joined by “and” are separate entries in the source; they are usually repeats but may differ in a detail not shown here. Equal values may be shown once. Read-outs that look alike come from different tables or passages of the source.

Legend:
α9α10 nAChR [1] = target: T1, α9α10 nAChR (Homo sapiens, UniProt Q9GZZ6+Q9UGM1); assay: cell-based; format: cell-based; conditions: for rank order of potency of antagonists: dose response curves
T1 construct: expressed in transfected cells; host or cells: HEK293T
Text: After three washes, the plates were placed in the FLIPR stage. […] Maximal FLIPR responses to ACh were plotted (FIGS. 3A-C).
Target sequence in this assay (Q9GZZ6 25-450): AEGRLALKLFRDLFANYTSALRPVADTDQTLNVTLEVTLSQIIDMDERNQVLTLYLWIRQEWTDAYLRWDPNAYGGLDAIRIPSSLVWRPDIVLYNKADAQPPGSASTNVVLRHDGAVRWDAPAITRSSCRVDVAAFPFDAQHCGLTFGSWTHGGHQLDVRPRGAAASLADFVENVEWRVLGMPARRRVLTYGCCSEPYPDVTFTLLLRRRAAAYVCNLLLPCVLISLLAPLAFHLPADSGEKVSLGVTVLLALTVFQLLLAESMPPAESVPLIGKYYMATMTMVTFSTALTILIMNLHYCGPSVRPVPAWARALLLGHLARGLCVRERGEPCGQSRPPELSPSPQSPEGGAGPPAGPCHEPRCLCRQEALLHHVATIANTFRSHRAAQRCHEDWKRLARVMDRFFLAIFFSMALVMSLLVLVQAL
Target sequence in this assay (Q9UGM1 23-479): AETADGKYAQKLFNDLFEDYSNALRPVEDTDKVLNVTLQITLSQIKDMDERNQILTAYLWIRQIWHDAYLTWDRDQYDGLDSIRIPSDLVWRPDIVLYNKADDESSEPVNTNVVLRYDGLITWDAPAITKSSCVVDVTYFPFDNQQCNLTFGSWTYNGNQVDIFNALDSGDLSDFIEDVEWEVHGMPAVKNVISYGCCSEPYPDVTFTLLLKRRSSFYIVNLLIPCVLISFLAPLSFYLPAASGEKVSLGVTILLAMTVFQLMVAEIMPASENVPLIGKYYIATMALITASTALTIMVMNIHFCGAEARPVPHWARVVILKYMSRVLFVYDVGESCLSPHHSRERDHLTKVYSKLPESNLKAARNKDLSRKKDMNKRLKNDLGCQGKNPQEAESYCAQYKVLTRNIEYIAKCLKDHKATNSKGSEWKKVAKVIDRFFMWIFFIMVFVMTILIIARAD

α9α10 nAChR [2] = target: T1, α9α10 nAChR; assay: FLIPR calcium assay of HEK293T cells co-transfected with α9α10 nAChR and cDNA clones, response evoked by 200 μM ACh; format: cell-based; conditions: 200 μM ACh; for FLIPR Response (Fold/Baseline): 180 s
Description: Human embryonic kidney 293T (HEK293T) cells were cultured in high glucose DMEM medium supplemented with 10% FBS, sodium pyruvate and penicillin/streptomycin. Prior to transfection, cells were seeded at ˜80-90% confluence in 384-well fluorescence imaging plate reader (FLIPR) assay plates. After a 4 hour (hr) incubation, wells of cells were individually co-transfected with human α9α10 nAChR plus one of 20,000 clones from cDNA libraries encoding most all human proteins (Origene Technologies; Rockville, Md.; Broad Institute; Cambridge, Mass.) using Fugene HD (Promega; Madison, Wis.) according to the manufacture's protocol. After two days incubation, cells were washed three times with assay buffer (137 mM NaCl, 4 mM KCl, 2 mM CaCl2, 1 mM MgCl2, 5 mM glucose, 10 mM HEPES pH7.4) and loaded with Calcium5 dye (Molecular Devices; San Jose, Calif.) and 1.25 mM probenecid for 1 hr at room temperature (RT). After three washes, the plates were placed in the FLIPR stage.
To further characterize the regulation of α9α10 nAChR expression, HEK293T cells were co-transfected with α9α10 nAChR and each of CHAT, TMIE, TMEM100, TMEM132A, TMEM132C, TMEM132D, TMEM132E and TNFRSF10A individually and in combination (Table 2).
Target sequence in this assay (Q9UGM1 23-479): as above
Target sequence in this assay (Q9GZZ6 25-450): as the sequence (Q9GZZ6 25-450) above

`CN1[C@@H]2CC[C@H]1C[C@@H](OC(=O)C(CO)c1ccccc1)C2` (stereo partly drawn) [Atropine, atropine] was tested, and the IC50 (α9α10 nAChR [1]; HEK293T, α9α10 nAChR + CHAT + TMIE, 200 μM ACh, read-out: Antagonist IC50) was 340 µM, the IC50 (α9α10 nAChR [1]; HEK293T, α9α10 nAChR + CHAT, 200 μM ACh, read-out: Antagonist IC50) was 12.3 µM and the IC50 (α9α10 nAChR [1]; HEK293T, α9α10 nAChR + TMIE, 200 μM ACh, read-out: Antagonist IC50) was 15.7 µM. The “rank order of potency of antagonists” value (α9α10 nAChR [1]; 200 μM ACh) was “MLA>strychnine>atropine>nicotine”.

For `CN1CCCC1c1cccnc1` (stereo not drawn) [Nicotine, nicotine], the IC50 (α9α10 nAChR [1]; Antagonist IC50) was 384 µM and 544 µM and 1500 µM and the “rank order of potency of antagonists” value (α9α10 nAChR [1]; 200 μM ACh) was “MLA>strychnine>atropine>nicotine”.

For `O=C1C[C@@H]2OCC=C3CN4CC[C@]56c7ccccc7N1[C@H]5[C@H]2[C@H]3C[C@H]46` [Strychnine, strychnine], the IC50 (α9α10 nAChR [1]; Antagonist IC50, HEK293T, α9α10 nAChR + CHAT + TMIE, 200 μM ACh) was 1.8 µM, the IC50 (α9α10 nAChR [1]; Antagonist IC50, HEK293T, α9α10 nAChR + CHAT, 200 μM ACh) was 1.3 µM and the IC50 (α9α10 nAChR [1]; Antagonist IC50, HEK293T, α9α10 nAChR + TMIE, 200 μM ACh) was 0.76 µM.

With “TNFRSF10A: Tumor necrosis factor receptor superfamily member 10A, SEQ ID NO: 10, co-transfected cDNA clone” the “FLIPR Response (Fold/Baseline)” value (α9α10 nAChR [2]; HEK293T co-transfected with α9α10 nAChR + CHAT plus the named gene) was 2.0 Fold/Baseline, the “FLIPR Response (Fold/Baseline)” value (α9α10 nAChR [2]; HEK293T co-transfected with α9α10 nAChR plus the named gene) was 0.4 Fold/Baseline and the “functional expression of co-transfected α9α10 nAChR in cDNA library screen” value (α9α10 nAChR [2]; HEK293T, 20,000 cDNA clones) was “enabled functional expression”.
